The values that follow are results of earlier work, collected in patent US20140243296A1, “Organic Compounds” (Jagotec AG, priority 2011, published 2014).

The structures appear in SMILES notation.

For series [1] the following is noted: qualitative.
Series [2] deals with CYP 3A4 isoform (Homo sapiens, UniProt P08684). The note with it: qualitative, prior-art knowledge.
The target of series [3] is P-glycoprotein (Pgp) (Homo sapiens, UniProt P08183). The note with it: qualitative, prior-art knowledge.
Sequence of P-glycoprotein (Pgp) (P08183 whole entry): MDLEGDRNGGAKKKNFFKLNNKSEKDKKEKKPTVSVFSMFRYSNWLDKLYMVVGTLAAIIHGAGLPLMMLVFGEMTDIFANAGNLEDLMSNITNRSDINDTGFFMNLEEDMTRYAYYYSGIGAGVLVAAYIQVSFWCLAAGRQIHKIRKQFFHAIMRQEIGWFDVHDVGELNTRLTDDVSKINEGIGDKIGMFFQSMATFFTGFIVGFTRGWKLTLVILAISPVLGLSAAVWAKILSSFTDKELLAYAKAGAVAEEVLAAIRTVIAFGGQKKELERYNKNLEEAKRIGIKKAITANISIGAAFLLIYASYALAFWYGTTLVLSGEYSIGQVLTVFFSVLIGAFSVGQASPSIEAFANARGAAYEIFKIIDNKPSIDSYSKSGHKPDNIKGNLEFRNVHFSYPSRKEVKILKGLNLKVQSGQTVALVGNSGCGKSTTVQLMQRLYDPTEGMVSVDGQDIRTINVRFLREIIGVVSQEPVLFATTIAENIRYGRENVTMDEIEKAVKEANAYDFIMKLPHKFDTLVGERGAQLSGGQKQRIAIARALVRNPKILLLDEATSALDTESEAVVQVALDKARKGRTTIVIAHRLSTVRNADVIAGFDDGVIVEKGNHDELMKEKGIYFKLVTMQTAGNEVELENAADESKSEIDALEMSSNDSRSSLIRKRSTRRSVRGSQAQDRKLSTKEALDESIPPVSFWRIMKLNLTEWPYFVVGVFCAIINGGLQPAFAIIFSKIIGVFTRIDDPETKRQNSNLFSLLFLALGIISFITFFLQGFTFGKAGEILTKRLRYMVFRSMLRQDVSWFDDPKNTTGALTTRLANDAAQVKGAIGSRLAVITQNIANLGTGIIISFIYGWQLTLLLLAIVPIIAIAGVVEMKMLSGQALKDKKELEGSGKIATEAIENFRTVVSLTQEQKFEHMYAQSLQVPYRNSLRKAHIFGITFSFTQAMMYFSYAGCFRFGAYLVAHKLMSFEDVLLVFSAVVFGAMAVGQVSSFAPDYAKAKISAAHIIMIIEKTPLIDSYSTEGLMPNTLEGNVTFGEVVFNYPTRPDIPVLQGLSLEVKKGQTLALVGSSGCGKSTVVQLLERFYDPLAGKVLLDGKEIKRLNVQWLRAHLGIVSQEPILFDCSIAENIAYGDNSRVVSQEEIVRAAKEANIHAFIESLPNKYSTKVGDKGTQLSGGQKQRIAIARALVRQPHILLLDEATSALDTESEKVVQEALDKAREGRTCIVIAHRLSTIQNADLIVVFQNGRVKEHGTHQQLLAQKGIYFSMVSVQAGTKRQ

Sequence of CYP 3A4 isoform (P08684 whole entry, canonical isoform): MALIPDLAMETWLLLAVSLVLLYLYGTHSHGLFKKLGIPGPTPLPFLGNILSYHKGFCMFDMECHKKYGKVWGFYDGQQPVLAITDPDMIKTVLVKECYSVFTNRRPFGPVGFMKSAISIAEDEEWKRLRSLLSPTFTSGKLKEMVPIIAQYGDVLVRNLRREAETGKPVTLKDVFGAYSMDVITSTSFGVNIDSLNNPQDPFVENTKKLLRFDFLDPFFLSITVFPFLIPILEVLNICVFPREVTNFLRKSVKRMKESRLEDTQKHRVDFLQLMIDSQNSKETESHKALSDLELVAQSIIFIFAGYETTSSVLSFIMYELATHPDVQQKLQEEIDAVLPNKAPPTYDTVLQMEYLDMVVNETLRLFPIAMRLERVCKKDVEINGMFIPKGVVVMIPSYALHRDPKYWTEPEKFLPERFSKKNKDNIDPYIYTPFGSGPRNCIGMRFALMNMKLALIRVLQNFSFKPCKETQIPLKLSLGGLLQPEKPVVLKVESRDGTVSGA

Consider `CC(C)CN(C[C@@H](O)[C@H](Cc1ccccc1)NC(=O)O[C@H]1CO[C@H]2OCC[C@H]21)S(=O)(=O)c1ccc(N)cc1` [Darunavir, darunavir], for which the solubility result in series [1] is given as “poorly soluble”.
Consider `CC(C)(C)NC(=O)[C@@H]1C[C@@H]2CCCC[C@@H]2CN1C[C@@H](O)[C@H](Cc1ccccc1)NC(=O)[C@H](CC(N)=O)NC(=O)c1ccc2ccccc2n1` [saquinavir], for which the “inhibition of / affinity towards CYP, particularly CYP 3A4 isoform” value (from here on “inhibition of / affinity towards CYP”) in series [2] is reported as “weak inhibitors”.
Consider `Cc1c(O)cccc1C(=O)N[C@@H](CSc1ccccc1)[C@H](O)CN1C[C@H]2CCCC[C@H]2C[C@H]1C(=O)NC(C)(C)C` [nelfinavir], for which, in series [2], the “inhibition of / affinity towards CYP” value was “modest inhibition”.
Turning to `CC(C)(C)NC(=O)[C@@H]1CN(Cc2cccnc2)CCN1C[C@@H](O)C[C@@H](Cc1ccccc1)C(=O)N[C@H]1c2ccccc2C[C@H]1O` [indinavir], in series [3], the “inhibitory effect on / affinity for Pgp” value is listed as “substantially no inhibitory effect”.
As for `CC(C)CN(C[C@@H](O)[C@H](Cc1ccccc1)NC(=O)O[C@H]1CCOC1)S(=O)(=O)c1ccc(N)cc1` [amprenavir], in series [2], the “inhibition of / affinity towards CYP” value is “weak inhibitors”.
